Measurements published in ChEMBL document CHEMBL1201862, “PubChem BioAssay data set” (2004).
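Interpolation was linear, between the two tested concentrations surrounding the appropriate level; five concentrations were tested over 48 hours in 96-well plates. GI50: concentration for 50% inhibition of growth.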 Active and inactive are the calls of the source. No stated cut-off is given here; in the data, active = GI50 up to about 1.1 µM and inactive = higher.

Key:
Assay in all cases: NCI-60 cell line screen, 48 h
SF-295 = system: SF-295
TK-10 = system: TK-10
OVCAR-8 = system: OVCAR-8
OVCAR-3 = system: OVCAR-3
HOP-62 = system: HOP-62
SW-620 = system: SW-620
RPMI-8226 = system: RPMI-8226
NCI-H460 = system: NCI-H460
EKVX = system: EKVX
OVCAR-4 = system: OVCAR-4
SN12C = system: SN12C
UO-31 = system: UO-31
SF-539 = system: SF-539
M14 = system: M14
HT-29 = system: HT-29
MDA-MB-231 = system: MDA-MB-231
DU-145 = system: DU-145
SNB-19 = system: SNB-19
MDA-N = system: MDA-N
NCI-H226 = system: NCI-H226

Measured: GI50

COc1ccc(/C=N/n2c(Cc3ccccc3)n[nH]c2=O)c(OC)c1
inactive: SF-295 15.3 µM | TK-10 27.3 µM | OVCAR-8 24.7 µM | OVCAR-3 > 63.5 µM | HOP-62 20.9 µM | SW-620 > 85.9 µM | RPMI-8226 > 100 µM | NCI-H460 > 50.7 µM | EKVX > 57.9 µM | OVCAR-4 > 58.6 µM | SN12C > 100 µM | UO-31 > 42.8 µM | SF-539 28.8 µM | M14 51.8 µM | HT-29 19.5 µM | MDA-MB-231 36.7 µM | DU-145 > 100 µM | SNB-19 28.2 µM | MDA-N > 100 µM | NCI-H226 33.8 µM

CC1=C(C)SC(=C2Sc3c(n(C)c(=O)n(C)c3=O)S2)S1
inactive: SF-295 28.7 µM | TK-10 27.9 µM | OVCAR-8 23.6 µM | OVCAR-3 71.3 µM | HOP-62 18.7 µM | SW-620 > 100 µM | RPMI-8226 > 100 µM | NCI-H460 30.5 µM | EKVX > 100 µM | OVCAR-4 21.4 µM | SN12C 35 µM | UO-31 59 µM | SF-539 13.2 µM | M14 > 100 µM | HT-29 76.9 µM | MDA-MB-231 22.7 µM | DU-145 > 100 µM | SNB-19 32.3 µM | MDA-N 47.6 µM | NCI-H226 20 µM

Cc1cccc2c(N)c3cccc(C(=O)NCC[N+](C)(C)Cc4ccc([N+](=O)[O-])s4)c3nc12
inactive: SF-295 9.64 µM | TK-10 20.4 µM | OVCAR-8 9.29 µM | OVCAR-3 9.04 µM | HOP-62 4.21 µM | SW-620 5.4 µM | RPMI-8226 2.62 µM | NCI-H460 1.57 µM | EKVX 14.1 µM | OVCAR-4 8.15 µM | UO-31 11.4 µM | SF-539 4.93 µM | M14 16.5 µM | HT-29 4.07 µM | MDA-MB-231 4.42 µM | DU-145 9.1 µM | SNB-19 3.22 µM | MDA-N 16 µM | NCI-H226 6.68 µM
active: SN12C 0.424 µM

CC1(CCCCO)C=CC(S(=O)(=O)c2ccccc2)CC1 (stereo not given)
inactive: SF-295 12 µM | TK-10 6.97 µM | OVCAR-8 10.5 µM | OVCAR-3 6.17 µM | HOP-62 2.64 µM | SW-620 5.87 µM | RPMI-8226 1.56 µM | NCI-H460 3.15 µM | EKVX 3.1 µM | OVCAR-4 8.67 µM | SN12C 11 µM | UO-31 4.16 µM | SF-539 7.91 µM | M14 3.4 µM | HT-29 1.82 µM | MDA-MB-231 4.31 µM | DU-145 5.14 µM | SNB-19 13.6 µM | MDA-N 3.42 µM | NCI-H226 2.43 µM

CCN(CC)C(=S)SNCc1ccc(S(N)(=O)=O)cc1
inactive: SF-295 9.06 µM | TK-10 25 µM | OVCAR-8 14.4 µM | OVCAR-3 14.4 µM | HOP-62 15.4 µM | SW-620 20 µM | RPMI-8226 2.93 µM | NCI-H460 1.34 µM | EKVX 20.9 µM | OVCAR-4 18.7 µM | SN12C 15.5 µM | UO-31 13.1 µM | SF-539 14.5 µM | M14 10.7 µM | HT-29 8.47 µM | MDA-MB-231 18.1 µM | DU-145 15.5 µM | SNB-19 16 µM | MDA-N 15.6 µM | NCI-H226 > 38.9 µM
